Measurements as given in ChEMBL document CHEMBL1201862, “PubChem BioAssay data set” (2004).
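Dose response: 5 concentrations. Exposure: 48 h. Format: 96-well plates. Endpoint: linear interpolation; highest concentration if not reached. GI50 = concentration required for 50% inhibition of growth.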 Calls of active or inactive are those of the source. Cut-off read from the data, not from the text of the source: active = GI50 up to about 1.1 µM and inactive = higher.

Tests used:
Experiment in all cases: inhibition of tumour cell growth, NCI panel, 48 h
UO-31 = tested on: UO-31
OVCAR-5 = tested on: OVCAR-5
NCI/ADR-RES = tested on: NCI/ADR-RES
ACHN = tested on: ACHN
Hs-578T = tested on: Hs-578T
EKVX = tested on: EKVX
SF-268 = tested on: SF-268
U-251 = tested on: U-251
SK-MEL-2 = tested on: SK-MEL-2
HCT-116 = tested on: HCT-116
MOLT-4 = tested on: MOLT-4
OVCAR-3 = tested on: OVCAR-3
DU-145 = tested on: DU-145
M14 = tested on: M14
A549 = tested on: A549
SNB-19 = tested on: SNB-19
SR = tested on: SR
RXF 393 = tested on: RXF 393
UACC-257 = tested on: UACC-257
LOX IMVI = tested on: LOX IMVI
K562 = tested on: K562
SNB-75 = tested on: SNB-75
MDA-MB-231 = tested on: MDA-MB-231
SK-MEL-5 = tested on: SK-MEL-5
MCF7 = tested on: MCF7
PC-3 = tested on: PC-3
SK-OV-3 = tested on: SK-OV-3
SF-295 = tested on: SF-295
NCI-H226 = tested on: NCI-H226
OVCAR-8 = tested on: OVCAR-8
HCT-15 = tested on: HCT-15
786-0 = tested on: 786-0
NCI-H522 = tested on: NCI-H522
NCI-H23 = tested on: NCI-H23
COLO 205 = tested on: COLO 205
HT-29 = tested on: HT-29
SN12C = tested on: SN12C
IGROV-1 = tested on: IGROV-1
HOP-62 = tested on: HOP-62
SK-MEL-28 = tested on: SK-MEL-28
T47D = tested on: T47D
Malme-3M = tested on: Malme-3M
MDA-MB-435 = tested on: MDA-MB-435
NCI-H460 = tested on: NCI-H460
BT-549 = tested on: BT-549
HOP-92 = tested on: HOP-92
OVCAR-4 = tested on: OVCAR-4
SW-620 = tested on: SW-620
TK-10 = tested on: TK-10
UACC-62 = tested on: UACC-62
RPMI-8226 = tested on: RPMI-8226

With `CC(C)(C)OC(=O)N(CCNS(=O)(=O)c1cccc2cnccc12)CCC(=O)ON1C(=O)CCC1=O` the GI50 (UO-31) was > 100 µM (inactive), the GI50 (OVCAR-5) was > 100 µM (inactive) and the GI50 (NCI/ADR-RES) was > 100 µM (inactive). The GI50 (ACHN) was > 100 µM (inactive), the GI50 (Hs-578T) was > 100 µM (inactive) and the GI50 (EKVX) was 6.52 µM (inactive). For the same compound, the GI50 (SF-268) was > 100 µM (inactive), the GI50 (U-251) was > 100 µM (inactive) and the GI50 (SK-MEL-2) was > 100 µM (inactive). For the same compound, the GI50 (HCT-116) was > 100 µM (inactive), the GI50 (MOLT-4) was > 100 µM (inactive) and the GI50 (OVCAR-3) was > 100 µM (inactive). The GI50 (DU-145) was > 100 µM (inactive), the GI50 (M14) was > 100 µM (inactive) and the GI50 (A549) was > 100 µM (inactive). For the same compound, the GI50 (SNB-19) was > 100 µM (inactive), the GI50 (SR) was > 100 µM (inactive) and the GI50 (RXF 393) was > 100 µM (inactive). For the same compound, the GI50 (UACC-257) was > 100 µM (inactive), the GI50 (LOX IMVI) was > 100 µM (inactive) and the GI50 (K562) was > 100 µM (inactive). The GI50 (SNB-75) was > 100 µM (inactive), the GI50 (MDA-MB-231) was > 100 µM (inactive) and the GI50 (SK-MEL-5) was > 100 µM (inactive). The GI50 (MCF7) was > 100 µM (inactive), the GI50 (PC-3) was > 100 µM (inactive) and the GI50 (SK-OV-3) was > 100 µM (inactive). The GI50 (SF-295) was > 100 µM (inactive), the GI50 (NCI-H226) was > 100 µM (inactive) and the GI50 (OVCAR-8) was > 100 µM (inactive). For the same compound, the GI50 (HCT-15) was > 100 µM, the GI50 (786-0) was > 100 µM (inactive) and the GI50 (NCI-H522) was > 100 µM (inactive). The GI50 (NCI-H23) was > 100 µM (inactive), the GI50 (COLO 205) was > 100 µM (inactive) and the GI50 (HT-29) was > 100 µM (inactive). For the same compound, the GI50 (SN12C) was > 100 µM (inactive), the GI50 (IGROV-1) was > 100 µM (inactive) and the GI50 (HOP-62) was > 100 µM (inactive). The GI50 (SK-MEL-28) was > 100 µM (inactive), the GI50 (T47D) was > 100 µM (inactive) and the GI50 (Malme-3M) was > 100 µM (inactive). For the same compound, the GI50 (MDA-MB-435) was > 100 µM (inactive), the GI50 (NCI-H460) was 51.9 µM (inactive) and the GI50 (BT-549) was > 100 µM (inactive). The GI50 (HOP-92) was 10.4 µM (inactive), the GI50 (OVCAR-4) was > 100 µM (inactive) and the GI50 (SW-620) was > 100 µM (inactive). For the same compound, the GI50 (TK-10) was > 100 µM (inactive), the GI50 (UACC-62) was > 100 µM (inactive) and the GI50 (RPMI-8226) was > 100 µM (inactive).
